Results published in US10189810B2, “Pyrazolyl-substituted pyridone compounds as serine protease inhibitors” (VERSEON CORPORATION, priority 2014, dated 2019).

Experiments:
Human thrombin = biological target: T1, Human thrombin (Homo sapiens, UniProt P00734); test: thrombin protease inhibition assay (chromogenic substrate S-2238); format: biochemical; conditions: 3 nM thrombin, 125 μM S-2238, 10 min pre-incubation, RT, read at 405 nm
T1 construct: Thrombin (fIIa, the active form of prothrombin) is another serine protease; purchased Haematologic Technologies Inc
Description: The thrombin activity reported herein (e.g., Table A) was obtained as follows. […] Thrombin was assayed in buffer containing 0.05 M Tris (pH 7.4), 0.015 M NaCl and 0.01% PEG-8000. The final concentration of enzyme used was 3 nM thrombin. […] All assays were performed in 96-well microtiter plates at room temperature (RT). […] Inhibitor IC50 values were determined by adding test compound as ten point, three-fold serial dilutions in buffer solution, as known in the art. The plate was read at 10 minutes after substrate addition. The IC50 was calculated by plotting the percent (%) inhibition against compound concentration and fitting the data to a constrained four parameter sigmoidal curve, as known in the art.

Human KLKB1 protein = biological target: T2, Human KLKB1 protein (Homo sapiens, UniProt P03952); test: KLKB1 kallikrein protease inhibition assay (chromogenic substrate S-2302); format: biochemical; conditions: 3 nM KLKB1, 250 μM S-2302, 10 min pre-incubation, RT, read at 405 nm
T2 construct: purchased Enzyme Research Labs
Description: The KLKB1 kallikrein activity reported herein (e.g., Table A) was obtained as follows. Human KLKB1 protein was obtained from Enzyme Research Labs. The chromogenic substrate S-2302 was obtained from DiaPharma. KLKB1 was assayed in buffer containing 0.05 M Tris (pH 7.4), 0.01 M NaCl and 0.2% w/v PEG-8000. The final concentration of enzyme used was 3 nM KLKB1. The final concentration of substrate used was 250 μM S-2302 for KLKB1. All assays were performed in 96-well microtiter plates at room temperature (RT). […] The plate was read at 10 minutes after substrate addition. The IC50 was calculated by plotting the percent (%) inhibition against compound concentration and fitting the data to a constrained four parameter sigmoidal curve, as known in the art.

T2 sequence (P03952 391-638 limits assumed): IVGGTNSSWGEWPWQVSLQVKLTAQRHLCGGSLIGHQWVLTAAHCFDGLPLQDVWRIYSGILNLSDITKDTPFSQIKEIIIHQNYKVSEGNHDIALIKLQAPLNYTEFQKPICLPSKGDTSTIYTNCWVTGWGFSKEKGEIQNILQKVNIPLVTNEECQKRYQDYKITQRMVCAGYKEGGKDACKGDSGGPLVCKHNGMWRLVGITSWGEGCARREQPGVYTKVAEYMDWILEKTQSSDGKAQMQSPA
T2 sequence (P03952 20-390 partner limits assumed): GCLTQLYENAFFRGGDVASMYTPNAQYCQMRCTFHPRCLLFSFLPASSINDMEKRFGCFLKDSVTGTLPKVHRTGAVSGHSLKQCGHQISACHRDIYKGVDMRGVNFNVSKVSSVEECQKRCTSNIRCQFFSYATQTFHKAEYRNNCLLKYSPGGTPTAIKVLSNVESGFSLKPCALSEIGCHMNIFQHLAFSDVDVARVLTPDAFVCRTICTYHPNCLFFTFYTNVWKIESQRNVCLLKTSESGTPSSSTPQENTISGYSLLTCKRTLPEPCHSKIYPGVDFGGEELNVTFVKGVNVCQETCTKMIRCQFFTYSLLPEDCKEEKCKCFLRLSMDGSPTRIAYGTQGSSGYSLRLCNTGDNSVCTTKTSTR

| IC50 (Human thrombin) | IC50 (Human KLKB1 protein) | SMILES |
| --- | --- | --- |
| < 100 nM | 1000 to 10000 nM | CC(C)(C)C(=O)n1nc(-c2cc(N3CCOCC3)c[nH]c2=O)cc1NCc1ccc(Cl)s1 [Entry 1, 3-(5-[(5-chlorothiophen-2-yl)methyl]amino-1-(2,2-dimethylpropanoyl)-1H-pyrazol-3-yl)-5-(morpholin-4-yl)-1,2-dihydropyridin-2-one] |
| < 100 nM | 10000 to 100000 nM | CC(C)(C)C(=O)n1nc(-c2cc(-c3ccccc3)c[nH]c2=O)cc1NCc1ccc(Cl)s1 [Entry 2, 3-(5-[(5-chlorothiophen-2-yl)methyl]amino-1-(2,2-dimethylpropanoyl)-1H-pyrazol-3-yl)-5-phenyl-1,2-dihydropyridin-2-one] |
| 100 to 1000 nM | 100 to 1000 nM | COc1ccccc1C(=O)n1nc(-c2cc(-c3cccnc3)c[nH]c2=O)cc1NCc1ccc(Cl)s1 [Entry 3, 3-(5-[(5-chlorothiophen-2-yl)methyl]amino-1-(2-methoxybenzoyl)-1H-pyrazol-3-yl)-5-(pyridin-3-yl)-1,2-dihydropyridin-2-one] |
| < 100 nM | 100 to 1000 nM | Cc1c[nH]c(=O)c(-c2cc(NCc3ccc(Cl)s3)n(C(=O)c3ccoc3)n2)c1 [Entry 4, 3-(5-[(5-chlorothiophen-2-yl)methyl]amino-1-(furan-3-carbonyl)-1H-pyrazol-3-yl)-5-methyl-1,2-dihydropyridin-2-one] |
| 100 to 1000 nM | 1000 to 10000 nM | COc1ccccc1C(=O)n1nc(-c2c[nH]c(=O)c(Br)c2)cc1NCc1ccc(Cl)s1 [Entry 5, 3-bromo-5-(5-[(5-chlorothiophen-2-yl)methyl]amino-1-(2-methoxybenzoyl)-1H-pyrazol-3-yl)-1,2-dihydropyridin-2-one] |
| > 100000 nM | > 100000 nM | O=c1[nH]cc(-c2cc(NCc3ccc(Cl)s3)[nH]n2)cc1Br [Entry 6, 3-bromo-5-(5-[(5-chlorothiophen-2-yl)methyl]amino-1H-pyrazol-3-yl)-1,2-dihydropyridin-2-one] |
| 100 to 1000 nM | 10000 to 100000 nM | O=C(c1ccoc1)n1nc(-c2ccc(Br)c(=O)[nH]2)cc1NCc1ccc(Cl)s1 [Entry 7, 3-bromo-6-(5-[(5-chlorothiophen-2-yl)methyl]amino-1-(furan-3-carbonyl)-1H-pyrazol-3-yl)-1,2-dihydropyridin-2-one] |
| < 100 nM | 1000 to 10000 nM | CC(C)(C)C(=O)n1nc(-c2cc[nH]c(=O)c2)cc1NCc1ccc(Cl)s1 [Entry 8, 4-(5-[(5-chlorothiophen-2-yl)methyl]amino-1-(2,2-dimethylpropanoyl)-1H-pyrazol-3-yl)-1,2-dihydropyridin-2-one] |
| < 100 nM | 1000 to 10000 nM | COCCn1ccc(-c2cc(NCc3ccc(Cl)s3)n(C(=O)C(C)(C)C)n2)cc1=O [Entry 9, 4-(5-[(5-chlorothiophen-2-yl)methyl]amino-1-(2,2-dimethylpropanoyl)-1H-pyrazol-3-yl)-1-(2-methoxyethyl)-1,2-dihydropyridin-2-one] |
| < 100 nM | 1000 to 10000 nM | CC(C)(C)C(=O)n1nc(-c2ccn(Cc3ccccn3)c(=O)c2)cc1NCc1ccc(Cl)s1 [Entry 10, 4-(5-[(5-chlorothiophen-2-yl)methyl]amino-1-(2,2-dimethylpropanoyl)-1H-pyrazol-3-yl)-1-(pyridin-2-ylmethyl)-1,2-dihydropyridin-2-one] |
| < 100 nM | 100 to 1000 nM | CC(C)(C)C(=O)n1nc(-c2ccn(Cc3cccnc3)c(=O)c2)cc1NCc1ccc(Cl)s1 [Entry 11, 4-(5-[(5-chlorothiophen-2-yl)methyl]amino-1-(2,2-dimethylpropanoyl)-1H-pyrazol-3-yl)-1-(pyridin-3-ylmethyl)-1,2-dihydropyridin-2-one] |
|  | 10000 to 100000 nM | CC(C)(C)C(=O)n1nc(-c2ccn(CC(=O)N3CCOCC3)c(=O)c2)cc1NCc1ccc(Cl)s1 [Entry 12, 4-(5-[(5-chlorothiophen-2-yl)methyl]amino-1-(2,2-dimethylpropanoyl)-1H-pyrazol-3-yl)-1-[2-(morpholin-4-yl)-2-oxoethyl]-1,2-dihydropyridin-2-one] |
| 1000 to 10000 nM | > 100000 nM | CC(C)(C)C(=O)n1nc(-c2cc(N3CCOCC3)[nH]c(=O)c2)cc1NCc1ccc(Cl)s1 [Entry 13, 4-(5-[(5-chlorothiophen-2-yl)methyl]amino-1-(2,2-dimethylpropanoyl)-1H-pyrazol-3-yl)-6-(morpholin-4-yl)-1,2-dihydropyridin-2-one] |
| 1000 to 10000 nM | > 100000 nM | O=C(c1ccco1)n1nc(-c2cc(-c3cccnc3)[nH]c(=O)c2)cc1NCc1ccc(Cl)s1 [Entry 15, 4-(5-[(5-chlorothiophen-2-yl)methyl]amino-1-(furan-2-carbonyl)-1H-pyrazol-3-yl)-6-(pyridin-3-yl)-1,2-dihydropyridin-2-one] |
| < 100 nM | 1000 to 10000 nM | O=C(c1ccoc1)n1nc(-c2cc[nH]c(=O)c2)cc1NCc1ccc(Cl)s1 [Entry 16, 4-(5-[(5-chlorothiophen-2-yl)methyl]amino-1-(furan-3-carbonyl)-1H-pyrazol-3-yl)-1,2-dihydropyridin-2-one] |
| < 100 nM | 1000 to 10000 nM | COCCn1ccc(-c2cc(NCc3ccc(Cl)s3)n(C(=O)c3ccoc3)n2)cc1=O [Entry 17, 4-(5-[(5-chlorothiophen-2-yl)methyl]amino-1-(furan-3-carbonyl)-1H-pyrazol-3-yl)-1-(2-methoxyethyl)-1,2-dihydropyridin-2-one] |
| < 100 nM | 100 to 1000 nM | O=C(c1ccoc1)n1nc(-c2ccn(Cc3ccccn3)c(=O)c2)cc1NCc1ccc(Cl)s1 [Entry 18, 4-(5-[(5-chlorothiophen-2-yl)methyl]amino-1-(furan-3-carbonyl)-1H-pyrazol-3-yl)-1-(pyridin-2-ylmethyl)-1,2-dihydropyridin-2-one] |
|  | 10000 to 100000 nM | CC(C)(C)C(=O)n1nc(-c2ccc(=O)[nH]c2)cc1NCc1ccc(Cl)s1 [Entry 31, 5-(5-[(5-chlorothiophen-2-yl)methyl]amino-1-(2,2-dimethylpropanoyl)-1H-pyrazol-3-yl)-1,2-dihydropyridin-2-one] |
|  | > 100000 nM | CC(C)(C)C(=O)n1nc(-c2ccc(=O)n(CC(=O)N3CCOCC3)c2)cc1NCc1ccc(Cl)s1 [Entry 32, 5-(5-[(5-chlorothiophen-2-yl)methyl]amino-1-(2,2-dimethylpropanoyl)-1H-pyrazol-3-yl)-1-[2-(morpholin-4-yl)-2-oxoethyl]-1,2-dihydropyridin-2-one] |
|  | 1000 to 10000 nM | CC(C)(C)C(=O)n1nc(-c2cccc(=O)[nH]2)cc1NCc1ccc(Cl)s1 [Entry 43, 6-(5-[(5-chlorothiophen-2-yl)methyl]amino-1-(2,2-dimethylpropanoyl)-1H-pyrazol-3-yl)-1,2-dihydropyridin-2-one] |
|  | > 100000 nM | CC(C)(C)C(=O)n1nc(-c2cccc(=O)n2Cc2ccccn2)cc1NCc1ccc(Cl)s1 [Entry 44, 6-(5-[(5-chlorothiophen-2-yl)methyl]amino-1-(2,2-dimethylpropanoyl)-1H-pyrazol-3-yl)-1-(pyridin-2-ylmethyl)-1,2-dihydropyridin-2-one] |
|  | > 100000 nM | CC(C)(C)C(=O)n1nc(-c2cccc(=O)n2CC(=O)N2CCOCC2)cc1NCc1ccc(Cl)s1 [Entry 45, 6-(5-[(5-chlorothiophen-2-yl)methyl]amino-1-(2,2-dimethylpropanoyl)-1H-pyrazol-3-yl)-1-[2-(morpholin-4-yl)-2-oxoethyl]-1,2-dihydropyridin-2-one] |
